Source: paper PMC10034064, “Expanding the apelin receptor pharmacological toolbox using novel fluorescent ligands” (Frontiers in Endocrinology, 2023)
Bridge positions count the residues as written; N and C are the ends. Peptide text beside a SMILES is read from it.

Legend:
apelin receptor [1] = biological target: T1, apelin receptor (Homo sapiens, UniProt P35414); test: Fluorescent ligand binding (saturation, specificity, competition) in CHO-APLNR cells by high content imaging; parameters: host or cells: CHO-K1
T1 sequence (P35414 1-380): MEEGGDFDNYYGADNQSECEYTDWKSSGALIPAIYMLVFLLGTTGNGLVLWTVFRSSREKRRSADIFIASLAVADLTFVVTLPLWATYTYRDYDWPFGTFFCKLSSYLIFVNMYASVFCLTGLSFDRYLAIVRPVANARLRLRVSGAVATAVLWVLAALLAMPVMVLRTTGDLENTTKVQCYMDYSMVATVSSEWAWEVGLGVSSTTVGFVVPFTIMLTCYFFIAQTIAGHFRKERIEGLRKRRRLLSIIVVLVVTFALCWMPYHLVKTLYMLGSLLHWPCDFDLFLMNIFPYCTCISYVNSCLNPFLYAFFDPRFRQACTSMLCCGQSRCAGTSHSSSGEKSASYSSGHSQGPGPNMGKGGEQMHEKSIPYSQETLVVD
Method: (§1) Cells were seeded in CellCarrier-96 Ultra Plates at a density of ~10 k/well. […] For time-course experiments, CHO-APLNR were treated with 300 nM of the fluorescent ligand for 0 – 90 mins, in the dark at room temperature. For saturation binding experiments, CHO-APLNR were treated with a concentration range of 1 – 300 nM of the fluorescent ligand for 90 mins, in the dark at room temperature. […] Untransfected CHO-K1 cells were also used as controls. […] At the end-points, CHO-APLNR were washed with HBSS before fixation with 4% formaldehyde. CHO-APLNR were washed with HBSS before treatment with Hoechst 33342 nuclear marker prepared at 10 µg/mL in HBSS for 15 mins. […] The software was also used to calculate binding affinities (Ki values) of competing ligands using the Cheng-Prusoff equation.
(§2) For imaging studies, cells in CellCarrier-96 Ultra Plates (PerkinElmer) were imaged using a 40x/NA1.1 water immersion objective. The device was set to measure an image field within each well, where the field is made up of a 4 x 4 or 5 x 5 grid of imaging regions (where each region is 250 x 250 μm in area). After using Z stacking to find an appropriate focal plane, cells were visualised and imaged at a focal depth of 0.5 μm above the bottom of the plate in all experiments. […]
(§3) Following image acquisition, several cell parameters were quantified using in-built Harmony High Content Imaging and Analysis Software (PerkinElmer). […] Intracellular fluorescence was calculated as fluorescence identified in the membrane collar subtracted from whole cell fluorescence. Mean fluorescence intensities were calculated for membrane and whole cell compartments in observed cells in the selected population, given as fluorescence units provided by Harmony software.

apelin receptor [2] = biological target: T1, apelin receptor; test: Radioligand competition binding against [125I]-apelin-13 in human left ventricle homogenate; parameters: Surgical samples of human left ventricle (HLV) tissue were obtained with informed consent; from tissue; host or cells: human left ventricle homogenate; details: apelin ligands vs [Pyr1]apelin-13; ELA ligands vs ELA-14
Method: Surgical samples of human left ventricle (HLV) tissue were obtained with informed consent and ethical approval (05/Q104/142). Tissues were snap frozen in liquid nitrogen before storage at -80°C. On the day of preparation, tissue was chopped finely with a razor blade on ice, before subsequent homogenisation using a Polytron Homogenizer (Thomas Scientific), in homogenisation buffer (50 mM Tris-HCl, 5 mM MgCl2, 5 mM EDTA, 1 mM EGTA, 1:500 protease inhibitor cocktail containing aprotinin and amastatin, balanced at pH 7.4) at 4°C. The resulting homogenate was subsequently spun at 1000 xg for 2 mins at 4°C. Supernatant was transferred to another set of tubes (pellet discarded) for a high speed spin at 40,000 xg, for 30 mins at 4°C. Supernatant was then discarded, and the remaining pellet resuspended in 2.5 mL/g of homogenisation buffer, before a second high speed spin at 40,000 xg, for 30 mins at 4°C. The supernatant was discarded, and the remaining pellet was resuspended in HEPES buffer (50 mM HEPES, balanced at pH 7.4 at room temperature) and stored in the freezer at -70°C until use in assays.
The radiolabel has a specific activity of 2200 Ci/mmol. […]
Total binding was determined in the absence of competing fluorescent ligand. […] Radioactivity in pellets was counted using a Cobra II model 5003 gamma counter (Packard). […]

apelin receptor [3] = biological target: T1, apelin receptor; test: Fluorescent ligand binding in human kidney tissue sections
Method: Frozen human kidney tissue sections (10 µm), were cut using a cryostat onto microscopy slides. […] Slides were washed with HBSS before fixation with 4% formaldehyde for 3 mins.
Automated fluorescent images (16 bit, 0.325 x 0.325 μm scaling per pixel) of fixed and mounted human tissue stained with fluorescent markers were acquired using an Axio Scan Z1 slide scanner (Zeiss) slide scanner with a Plan-Apochromat 20x/NA0.8 M27 objective lens connected to a Hamamatsu Orca Flash camera. An initial brightfield scan was performed to visualise tissue on slides, and a spline contour tool was used to outline the tissue to minimise the total region imaged. A profile with three fluorescent channels was used; a first channel (blue), with an LED-Module 385 nm light source set at 10% intensity and 10 ms exposure time at a depth of focus of 1.45 μm for Hoechst 33342 nuclear marker (405 nm wavelength); a second channel (green), with an LED-Module 475 nm light source set at 80% intensity and 30 ms exposure time at a depth of focus of 1.64 μm for 488 nm wavelengths; and a third channel (yellow/orange), an LED-Module 567 nm light source set at 80% intensity and 30 ms exposure time at a depth of focus of 1.88 μm for 555 nm wavelengths. Focal depths were determined by the slide scanner’s in-built Z stacking autofocusing. All acquired images were saved and visualised using ZEN software (Zeiss) and/or Orbit Image Analysis (ORBIT) software. Regions of interest were identified using the spline contour, and mean fluorescent signal (in grayscales) was provided by ZEN software (Zeiss).

[4] = biological target: T2, human apelin receptor (AGTRL1) (Homo sapiens, UniProt P35414); test: PathHunter GPCR internalisation assay in U2OS cells; assay type: cell-based; details: U2OS cells overexpressing human apelin receptor, 90 mins, n = 3
T2 construct: host or cells: U2OS
T2 sequence (P35414 1-380): T1 sequence (P35414 1-380)
Method: Internalisation of apelin receptor following ligand treatment was determined using an in vitro PathHunter GPCR Internalisation Assay (Eurofins). The manufacturer’s protocol was modified in accordance with previous in-house optimisation. All reagents were provided in the assay kit. U2OS cells overexpressing human apelin receptor (AGTRL1) were seeded in cell plating reagent into 96-well plates and incubated for 48 h at 37°C, 5% CO2, humidified. To test novel fluorescent compounds for agonist activity, wells were treated with test compounds over a concentration range in Cell Plating Reagent to generate an 8-point concentration-response curve. Cells were then incubated for 90 mins at 37°C, 5% CO2, humidified before treatment with Working Detection Solution (Cell Assay Buffer, Substrate Reagent 1, Substrate Reagent 2), and incubation for 2 h at room temperature, protected from light. Plates were read in a chemiluminescence detecting LumiLITE Microplate Reader (DiscoveRx, Fremont, CA, USA). Responses, measured in Relative Light Units (RLU), were fitted to four parameter logistic concentration response curves in GraphPad Prism version 6.07 for Windows (GraphPad Software) to determine compound concentrations inducing half maximal response (EC50), and pD2 values (-log10 EC50) were calculated.

apelin receptor [5] = biological target: T1, apelin receptor; test: Dynamic mass redistribution assay in CHO-APLNR cells; assay type: cell-based; parameters: host or cells: CHO-K1; details: maximal change in peak wavelength value from baseline, n = 3
Method: Apelin receptor downstream signalling was determined using an in vitro BIND technology dynamic mass redistribution assay (SRU Biosystems). CHO-APLNR cells were seeded in 96-well biosensor plates (SRU Biosystems) at a density of 50K/well, maintained in 95 µL feeding media, and incubated for 24 h at 37°C, 5% CO2, humidified. The following day, the plate was loaded onto the SRU Biosystems BIND PROFILER TURBO reader, and left to acclimatise to room temperature for 20 mins before a baseline read was taken over 10 mins. To test novel fluorescent compounds for agonist activity, cells were treated with test compounds (5 µL additions in PBS) over a concentration range to generate an 8-point concentration-response curve. The biosensor plate was read for a subsequent 60 mins. Responses, measured in maximal change in peak wavelength value from baseline (ΔPWV), were fitted to four parameter logistic concentration response curves in GraphPad Prism version 6.07 for Windows (GraphPad Software) to determine compound concentrations inducing half maximal response (EC50), and pD2 values (-log10 EC50) were calculated.

apelin receptor [6] = test: Fluorescent ligand binding (saturation, specificity, competition) in CHO-APLNR cells by high content imaging; details: 300 nM apelin647, wild-type CHO-K1 cells without apelin receptor
Method: as §1, §2, §3

[7] = 1 µM fluorescent ligand alone, human kidney sections, 30 mins
[8] = 1 µM fluorescent ligand plus 10 µM [Pyr1]apelin-13 (apelin488) or ELA-14 (ELA488)

CCC(CC)n1c(Cc2cccs2)nc2cc(C(=O)N[C@H](CC(=O)O)CC(C)C)ccc21 [CMF-019]
pKi (apelin receptor [1]): 5.91

CSCC[C@H](NC(=O)[C@H](CS)NC(=O)[C@H](CCCNC(=N)N)NC(=O)[C@H](CCCNC(=N)N)NC(=O)[C@H](CCC(N)=O)NC(=O)CCOCCOCCOCCOCCNC(=O)c1ccc(-c2c3ccc(=N)c(S(=O)(=O)O)c-3oc3c(S(=O)(=O)O)c(N)ccc23)c(C(=O)O)c1)C(=O)N1CCC[C@H]1C(=O)N[C@@H](CC(C)C)C(=O)N[C@@H](Cc1c[nH]cn1)C(=O)N[C@@H](CO)C(=O)N[C@@H](CCCNC(=N)N)C(=O)N[C@H](C(=O)N1CCC[C@H]1C(=O)N[C@@H](Cc1ccccc1)C(=O)N1CCC[C@H]1C(=O)O)C(C)C [ELA488]
binding affinity fold lower than the unlabelled endogenous parent ligand (apelin receptor [2]): ~ 23 fold | mean fluorescence in renal blood vessels (apelin receptor [3]; [7]): 18869 ± 5968 grayscales | mean fluorescence in tubular structures of the renal cortex (apelin receptor [3]; [7]): 7392 ± 1338 grayscales | mean fluorescence in renal blood vessels in the presence of unlabelled parent ligand (apelin receptor [3]; [8]): 7946 ± 3656 grayscales | mean fluorescence in tubular structures of the renal cortex in the presence of unlabelled parent ligand (apelin receptor [3]; [8]): 2458 ± 801 grayscales | Emax [4]: 169693 ± 9461 RLU | Emax (apelin receptor [5]): 240.32 ± 27.91 ΔPWV

CSCC[C@H](NC(=O)[C@H](CS)NC(=O)[C@H](CCCNC(=N)N)NC(=O)[C@H](CCCNC(=N)N)NC(=O)[C@H](CCC(N)=O)NC(=O)CCOCCOCCOCCOCCNC(=O)CCCCCC1(C)C(=CC=CC=CC2=[N+](CCCS(=O)(=O)[O-])c3ccc(S(=O)(=O)O)cc3C2(C)C)N(CCCS(=O)(=O)O)c2ccc(S(=O)(=O)O)cc21)C(=O)N1CCC[C@H]1C(=O)N[C@@H](CC(C)C)C(=O)N[C@@H](Cc1c[nH]cn1)C(=O)N[C@@H](CO)C(=O)N[C@@H](CCCNC(=N)N)C(=O)N[C@H](C(=O)N1CCC[C@H]1C(=O)N[C@@H](Cc1ccccc1)C(=O)N1CCC[C@H]1C(=O)O)C(C)C (stereo partly shown) [ELA647]
binding affinity fold lower than the unlabelled endogenous parent ligand (apelin receptor [2]): ~ 58 fold | Emax [4]: 128992 ± 6218 RLU | Emax (apelin receptor [5]): 185.23 ± 36.82 ΔPWV

CC(C)C[C@@H]1NC(=O)[C@H](CCCNC(=N)N)NC(=O)[C@@H]2CCCN2C(=O)[C@H](CCCNC(=N)N)NC(=O)[C@@H](NC(=O)[C@H](Cc2c[nH]cn2)NC(=O)[C@H](CCCCN)NC(=O)[C@@H]2CSSC[C@H](N)C(=O)N[C@@H](CCCNC(=N)N)C(=O)N3CCC[C@H]3C(=O)N[C@@H](CCCNC(=N)N)C(=O)N[C@@H](CC(C)C)C(=O)N2)CSSC[C@@H](C(=O)O)NC1=O [MM54] (H-CRPRLCKHCRPRLC-OH; disulfide 1-6, 9-14)
Ki (apelin receptor [1]): 5.75 µM

CCCC[C@H](NC(=O)[C@@H]1CCCN1C(=O)CNC(=O)[C@H](CCCCN)NC(=O)[C@H](Cc1c[nH]cn1)NC(=O)[C@H](CO)NC(=O)[C@H](CC(C)C)NC(=O)[C@H](CCCNC(=N)N)NC(=O)[C@@H]1CCCN1C(=O)[C@H](CCCNC(=N)N)NC(=O)[C@H](CCC(N)=O)NC(=O)CCOCCOCCOCCOCCNC(=O)CCCCCC1(C)C(=CC=CC=CC2=[N+](CCCS(=O)(=O)[O-])c3ccc(S(=O)(=O)O)cc3C2(C)C)N(CCCS(=O)(=O)O)c2ccc(S(=O)(=O)O)cc21)C(=O)N1CCC[C@H]1C(=O)N[C@@H](Cc1ccc(OCc2ccccc2)cc1)C(=O)O (stereo partly shown) [apelin647]
binding in wild-type CHO-K1 cells (apelin receptor [6]): 0.70 ± 0.45 mean fluorescence
